Measured values reported in US12377112B2, “Methods of treating neurocognitive disorders, chronic pain and reducing inflammation” (priority 2019, dated 2025).

Tested on: healthy subjects
Assay: Phase 1 study: Social Cognition Panel (PET, RMET, SSR, SVO, TEQ)
Type: in vivo, human
From the text: In some embodiments, Social Cognition Panel scales are utilized to evaluate the safety and/or efficacy of psilocybin. The social cognition panel scales comprise the pictorial empathy test (PET), reading the mind in the eyes test (RMET), social value orientation (SVO) test, the Toronto Empathy Questionnaire (TEQ), and the scale of social responsibility (SSR).
In some embodiments, the Pictorial Empathy Test (PET) is utilized to evaluate the effect of psilocybin on affective empathy.
In some embodiments, Reading the Mind in the Eyes Test (RMET) is utilized to evaluate the safety and/or efficacy of psilocybin. The RMET has 36 items, in which subjects are presented with a photograph of the eyes region of the face and must choose 1 of 4 adjectives or phrases to describe the mental state of the person pictured. A definition handout is provided at the beginning of the task and a practice item precedes the first trial.
In some embodiments, the Social Value Orientation (SVO) test is utilized to evaluate the safety and/or efficacy of psilocybin. The SVO Slider Measure has 6 primary items with 9 secondary (and optional) items. All of the items have the same general form. Each item is a resource allocation choice over a well-defined continuum of joint payoffs.
In some embodiments, the Toronto Empathy Questionnaire (TEQ) is utilized to evaluate the safety and/or efficacy of psilocybin. The TEQ represents empathy as a primarily emotional process. […] The TEQ is a brief, reliable and valid instrument for the assessment of empathy. In some embodiments, after treating according to the methods of the disclosure, a subject's TEQ score increases by about 5%, about 10%, about 15%, about 20%, about 25%, about 30%, about 35%, about 40%, about 45%, about 50%, about 55%, about 60%, about 65%, about 70%, about 75%, about 80%, about 85%, about 90%, about 95%, or about 100%, about 110%, about 120%, about 130%, about 140%, about 150%, about 160%, about 170%, about 180%, about 190%, about 200%, about 210%, about 220%, about 230%, about 240%, about 250%, about 260%, about 270%, about 280%, about 290%, or about 300%, or more, compared to prior to treatment.
In some embodiments, the Scale of Social Responsibility (SSR) is utilized to evaluate the safety and/or efficacy of psilocybin. The SSR measures perceptions regarding the importance of ethics and social responsibility.
The Pictorial Empathy Test (PET), Reading the Mind in the Eyes Test (RMET), Scale of Social Responsibility (SSR), Social Value Orientation (SVO), and Toronto Empathy Questionnaire (TEQ) were performed. Table 28 summarizes the results of the mixed model for repeated measures (MMRM) analysis for each of the aforementioned social cognition panel scales measured on Day 7 and Day 84 after study drug administration.

## CN(C)CCc1c[nH]c2cccc(OP(=O)(O)O)c12 [Psilocybin, psilocybin]
Day 7
  PET change from baseline, LS mean difference Psilocybin 10 mg-Placebo: −0.1
  PET change from baseline, LS mean difference Psilocybin 25mg-10mg: 0.3
  PET change from baseline, LS mean difference Psilocybin 25 mg-Placebo: 0.2
  RMET change from baseline, LS mean difference Psilocybin 10 mg-Placebo: 0.1
  RMET change from baseline, LS mean difference Psilocybin 25mg-10mg: 0.0
  RMET change from baseline, LS mean difference Psilocybin 25 mg-Placebo: 0.2
  SSR compliance social rules change from baseline, LS mean difference Psilocybin 10 mg-Placebo: 0.0
  SSR compliance social rules change from baseline, LS mean difference Psilocybin 25mg-10mg: 0.1
  SSR compliance social rules change from baseline, LS mean difference Psilocybin 25 mg-Placebo: 0.1
  SSR fulfilling expectations change from baseline, LS mean difference Psilocybin 10 mg-Placebo: 0.1
  SSR fulfilling expectations change from baseline, LS mean difference Psilocybin 25mg-10mg: 0.1
  SSR fulfilling expectations change from baseline, LS mean difference Psilocybin 25 mg-Placebo: 0.2
  SSR global change from baseline, LS mean difference Psilocybin 10 mg-Placebo: 1.2
  SSR global change from baseline, LS mean difference Psilocybin 25mg-10mg: 1.6
  SSR global change from baseline, LS mean difference Psilocybin 25 mg-Placebo: 2.8
  SVO angle change from baseline, LS mean difference Psilocybin 10 mg-Placebo: 3.4
  SVO angle change from baseline, LS mean difference Psilocybin 25mg-10mg: −1.3
  SVO angle change from baseline, LS mean difference Psilocybin 25 mg-Placebo: 2.1
  SVO type change from baseline, LS mean difference Psilocybin 10 mg-Placebo: 0.1
  SVO type change from baseline, LS mean difference Psilocybin 25mg-10mg: −0.0
  SVO type change from baseline, LS mean difference Psilocybin 25 mg-Placebo: 0.1
  TEQ change from baseline, LS mean difference Psilocybin 10 mg-Placebo: 0.1
  TEQ change from baseline, LS mean difference Psilocybin 25mg-10mg: 0.1
  TEQ change from baseline, LS mean difference Psilocybin 25 mg-Placebo: 0.2
Day 84
  PET change from baseline, LS mean difference Psilocybin 10 mg-Placebo: −0.1
  PET change from baseline, LS mean difference Psilocybin 25mg-10mg: 0.3
  PET change from baseline, LS mean difference Psilocybin 25 mg-Placebo: 0.1
  RMET change from baseline, LS mean difference Psilocybin 10 mg-Placebo: 0.2
  RMET change from baseline, LS mean difference Psilocybin 25mg-10mg: 0.3
  RMET change from baseline, LS mean difference Psilocybin 25 mg-Placebo: 0.5
  SSR compliance social rules change from baseline, LS mean difference Psilocybin 10 mg-Placebo: −0.0
  SSR compliance social rules change from baseline, LS mean difference Psilocybin 25mg-10mg: 0.1
  SSR compliance social rules change from baseline, LS mean difference Psilocybin 25 mg-Placebo: 0.1
  SSR fulfilling expectations change from baseline, LS mean difference Psilocybin 10 mg-Placebo: −0.1
  SSR fulfilling expectations change from baseline, LS mean difference Psilocybin 25mg-10mg: 0.2
  SSR fulfilling expectations change from baseline, LS mean difference Psilocybin 25 mg-Placebo: 0.0
  SSR global change from baseline, LS mean difference Psilocybin 10 mg-Placebo: 0.3
  SSR global change from baseline, LS mean difference Psilocybin 25mg-10mg: 1.8
  SSR global change from baseline, LS mean difference Psilocybin 25 mg-Placebo: 2.2
  SVO angle change from baseline, LS mean difference Psilocybin 10 mg-Placebo: 3.4
  SVO angle change from baseline, LS mean difference Psilocybin 25mg-10mg: −1.0
  SVO angle change from baseline, LS mean difference Psilocybin 25 mg-Placebo: 2.4
  SVO type change from baseline, LS mean difference Psilocybin 10 mg-Placebo: 0.1
  SVO type change from baseline, LS mean difference Psilocybin 25mg-10mg: −0.0
  SVO type change from baseline, LS mean difference Psilocybin 25 mg-Placebo: 0.1
  TEQ change from baseline, LS mean difference Psilocybin 10 mg-Placebo: 0.1
  TEQ change from baseline, LS mean difference Psilocybin 25mg-10mg: 0.0
  TEQ change from baseline, LS mean difference Psilocybin 25 mg-Placebo: 0.1
Psilocybin 10 mg, Day 7
  SSR fulfilling expectations change from baseline, LS mean: −0.1
Psilocybin 10 mg, Day 84
  SSR fulfilling expectations change from baseline, LS mean: −0.2
  TEQ change from baseline, LS mean: −0.1
Psilocybin 25 mg, Day 7
  SSR fulfilling expectations change from baseline, LS mean: −0.0
Psilocybin 25 mg, Day 84
  SSR fulfilling expectations change from baseline, LS mean: −0.0
  TEQ change from baseline, LS mean: −0.0
